According to patent US7605156B2, “Methods for the use of inhibitors of cytosolic phospholipase A2” (Wyeth, priority 2001, dated 2009):

These molecules were tested against T1, cPLA2 (Homo sapiens, UniProt P47712) (assay: Coumarine assay (hydrolysis of 7-hydroxycoumarinyl 6-heptenoate)). Settings: 60 μM 7-hydroxycoumarinyl 6-heptenoate, pH 7.5; read-out: Coumarin IC50.
T1 sequence (P47712 1-749): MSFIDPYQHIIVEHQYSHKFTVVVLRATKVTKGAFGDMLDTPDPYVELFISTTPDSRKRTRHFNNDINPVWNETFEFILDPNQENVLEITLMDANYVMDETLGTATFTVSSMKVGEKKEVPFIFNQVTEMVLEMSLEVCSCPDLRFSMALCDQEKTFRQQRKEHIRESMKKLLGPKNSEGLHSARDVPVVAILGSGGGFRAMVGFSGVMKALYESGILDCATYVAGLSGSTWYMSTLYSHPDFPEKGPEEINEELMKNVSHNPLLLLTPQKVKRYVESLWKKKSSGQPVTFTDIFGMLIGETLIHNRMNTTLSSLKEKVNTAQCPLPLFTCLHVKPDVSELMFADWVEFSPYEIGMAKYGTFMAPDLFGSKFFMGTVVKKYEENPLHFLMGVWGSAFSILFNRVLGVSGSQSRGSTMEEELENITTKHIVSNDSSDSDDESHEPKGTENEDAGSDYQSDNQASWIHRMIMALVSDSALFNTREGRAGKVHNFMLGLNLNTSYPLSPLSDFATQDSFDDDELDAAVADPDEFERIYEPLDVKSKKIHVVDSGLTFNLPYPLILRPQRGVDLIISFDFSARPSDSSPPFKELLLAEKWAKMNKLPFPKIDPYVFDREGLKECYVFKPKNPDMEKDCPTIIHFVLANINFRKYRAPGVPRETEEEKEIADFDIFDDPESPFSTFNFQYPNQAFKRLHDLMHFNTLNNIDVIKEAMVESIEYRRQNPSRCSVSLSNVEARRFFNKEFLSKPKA
Assay type: biochemical

Molecule	IC50
O=C(O)c1ccc(OCCc2c(CCNS(=O)(=O)c3ccc(Cl)c4nonc34)n(C(c3ccccc3)c3ccccc3)c3ccc(Cl)cc23)cc1 [Example 174, 4-{2-[1-benzhydryl-5-chloro-2-(2-{[(7-chloro-2,1,3-benzoxadiazol-4-yl)sulfonyl]amino}ethyl)-1H-indol-3-yl]ethoxy}benzoic acid]	1100 nM
O=C(O)c1ccc(OCCc2c(CCNS(=O)(=O)CSc3ccc(Cl)c(Cl)c3)n(C(c3ccccc3)c3ccccc3)c3ccc(Cl)cc23)cc1 [Example 220, 4-[2-(1-benzhydryl-5-chloro-2-{2-[({[(3,4-dichlorophenyl)thio]methyl}sulfonyl)amino]ethyl}-1H-indol-3-yl)ethoxy]benzoic acid]	400 nM
O=C(O)c1ccc(OCCc2c(CCNS(=O)(=O)c3cccc4nonc34)n(C(c3ccccc3)c3ccccc3)c3ccc(Cl)cc23)cc1 [Example 182, 4-(2-{1-Benzhydryl-2-[2-(benzo[1,2,5]oxadiazole-4-sulfonylamino)-ethyl]-5-chloro-1H-indol-3-yl}-ethoxy)benzoic acid]	600 nM
O=C(O)c1ccc(OCCc2c(CCNS(=O)(=O)CCN3C[C@@H]4C[C@H]3CO4)n(C(c3ccccc3)c3ccccc3)c3ccc(Cl)cc23)cc1 [Example 251]	1500 nM
Cc1cccc(C)c1S(=O)(=O)NCCc1c(CCOc2ccc(C(=O)O)cc2)c2cc(Cl)ccc2n1C(c1ccccc1)c1ccccc1 [Example 271, 4-{2-[1-benzhydryl-5-chloro-2-(2-{[(2,6-dimethylphenyl)sulfonyl]amino}ethyl)-1H-indol-3-yl]ethoxy}benzoic acid]	150 nM
4-{2-[1-benzhydryl-5-chloro-2-(2-{[(2,6-dimethylbenzyl)sulfonyl]amino}ethyl)-1H-indol-3-yl]ethoxy}benzoic acid [Example 279]	160 nM
O=C(O)c1ccc(OCCc2c(CCNS(=O)(=O)c3ccc(Cl)cc3Cl)n(C(c3ccccc3)c3ccccc3)c3ccc(Cl)cc23)cc1 [Example 159, 4-{2-[1-benzhydryl-5-chloro-2-(2-{[(2,4-dichlorophenyl)sulfonyl]amino}ethyl)-1H-indol-3-yl]ethoxy}benzoic acid]	650 nM
O=C(O)c1ccc(OCCc2c(CCNS(=O)(=O)c3c(Cl)cc(Cl)cc3Cl)n(C(c3ccccc3)c3ccccc3)c3ccc(Cl)cc23)cc1 [Example 161, 4-{2-[1-benzhydryl-5-chloro-2-(2-{[(2,4,6-trichlorophenyl)sulfonyl]amino}ethyl)-1H-indol-3-yl]ethoxy}benzoic acid]	320 nM
O=C(O)c1ccc(OCCc2c(CCNS(=O)(=O)c3cccc(-c4ccccc4)c3)n(C(c3ccccc3)c3ccccc3)c3ccc(Cl)cc23)cc1 [Example 207, 4-[2-(1-benzhydryl-2-{2-[(1,1′-biphenyl-3-ylsulfonyl)amino]ethyl}-5-chloro-1H-indol-3-yl)ethoxy]benzoic acid]	1400 nM
O=C(O)c1ccc(OCCc2c(CCNS(=O)(=O)Cc3cc(F)cc(F)c3)n(C(c3ccccc3)c3ccccc3)c3ccc(Cl)cc23)cc1 [Example 35, 4-{2-[1-benzhydryl-5-chloro-2-(2-{[(3,5-difluorobenzyl)-sulfonyl]amino}ethyl)-1H-indol-3-yl]ethoxy}benzoic acid]	330 nM
O=C(O)c1ccc(OCCc2c(CCNS(=O)(=O)c3c(F)cccc3F)n(C(c3ccccc3)c3ccccc3)c3ccc(Cl)cc23)cc1 [Example 225, 4-{2-[1-benzhydryl-5-chloro-2-(2-{[(2,6-difluorophenyl)sulfonyl]amino}ethyl)-1H-indol-3-yl]ethoxy}benzoic acid]	400 nM
O=C(O)c1ccc(OCCc2c(CCNS(=O)(=O)c3ccc(N4CCOCC4)nc3)n(C(c3ccccc3)c3ccccc3)c3ccc(Cl)cc23)cc1 [Example 179, 4-{2-[1-benzhydryl-5-chloro-2-(2-{[(6-morpholin-4-ylpyridin-3-yl)sulfonyl]amino}ethyl)-1H-indol-3-yl]ethoxy}benzoic acid]	900 nM
CC1CCN(CCS(=O)(=O)NCCc2c(CCOc3ccc(C(=O)O)cc3)c3cc(Cl)ccc3n2C(c2ccccc2)c2ccccc2)CC1 [Example 245, 4-(2-{1-benzhydryl-5-chloro-2-[2-({[2-(4-methylpiperidin-1-yl)ethyl]sulfonyl}amino)ethyl]-1H-indol-3-yl}ethoxy)benzoic acid]	900 nM
COc1ccc(S(=O)(=O)NCCc2c(CCOc3ccc(C(=O)O)cc3)c3cc(Cl)ccc3n2C(c2ccccc2)c2ccccc2)c([N+](=O)[O-])c1 [Example 197, 4-(2-{1-Benzhydryl-5-chloro-2-[2-(4-methoxy-2-nitro-benzenesulfonylamino)-ethyl]-1H-indol-3-yl}-ethoxy)-benzoic acid]	400 nM
O=C(O)c1ccc(OCCc2c(CCNS(=O)(=O)c3c(Cl)cccc3Cl)n(C(c3ccccc3)c3ccccc3)c3ccc(Cl)cc23)cc1 [Example 160, 4-{2-[1-benzhydryl-5-chloro-2-(2-{[(2,6-dichlorophenyl)sulfonyl]amino}ethyl)-1H-indol-3-yl]ethoxy}benzoic acid]	190 nM

The remaining lines, values ahead:

IC50	Molecule
90 nM	O=C(O)c1ccc(CCCc2c(CCNS(=O)(=O)c3c(F)cccc3C(F)(F)F)n(C(c3ccccc3)c3ccccc3)c3ccc(Cl)cc23)cc1 [Example 268, 4-(3-{1-benzhydryl-5-chloro-2-[2-({[2-fluoro-6-(trifluoromethyl)phenyl]sulfonyl}amino)ethyl]-1H-indol-3-yl}propyl)benzoic acid]
600 nM	O=C(O)c1ccc(OCCc2c(CCNS(=O)(=O)c3ccccc3F)n(C(c3ccccc3)c3ccccc3)c3ccc(Cl)cc23)cc1 [Example 223]
250 nM	CSc1ccccc1S(=O)(=O)NCCc1c(CCCc2ccc(C(=O)O)cc2)c2cc(Cl)ccc2n1C(c1ccccc1)c1ccccc1 [Example 238]
180 nM	Cc1nn(C)c(C)c1S(=O)(=O)NCCc1c(CCCc2ccc(C(=O)O)cc2)c2cc(Cl)ccc2n1C(c1ccccc1)c1ccccc1 [Example 212, 4-{3-[1-benzhydryl-5-chloro-2-(2-{[(1,3,5-trimethyl-1H-pyrazol-4-yl)sulfonyl]amino}ethyl)-1H-indol-3-yl]propyl}benzoic acid]
85 nM	CC(C)(C)c1ccccc1S(=O)(=O)NCCc1c(CCCc2ccc(C(=O)O)cc2)c2cc(Cl)ccc2n1C(c1ccccc1)c1ccccc1 [Example 236]
140 nM	Cc1cccc(Cl)c1S(=O)(=O)NCCc1c(CCCc2ccc(C(=O)O)cc2)c2cc(Cl)ccc2n1C(c1ccccc1)c1ccccc1 [Example 226]
200 nM	CC(C)(C)c1ccccc1S(=O)(=O)NCCc1c(CCOc2ccc(C(=O)O)cc2)c2cc(Cl)ccc2n1C(c1ccccc1)c1ccccc1 [Example 237, 4-{2-[1-benzhydryl-2-(2-{[(2-tert-butylphenyl)sulfonyl]amino}ethyl)-5-chloro-1H-indol-3-yl]ethoxy}benzoic acid]
350 nM	O=C(O)c1ccc(CCCc2c(CCNS(=O)(=O)C3CC3)n(C(c3ccccc3)c3ccccc3)c3ccc(Cl)cc23)cc1 [Example 280, 4-[3-(1-benzhydryl-5-chloro-2-{2-[(cyclopropylsulfonyl)amino]-ethyl}-1H-indol-3-yl)propyl]benzoic acid]
230 nM	COc1ccccc1S(=O)(=O)NCCc1c(CCCc2ccc(C(=O)O)cc2)c2cc(Cl)ccc2n1C(c1ccccc1)c1ccccc1 [Example 234, 4-{3-[1-Benzhydryl-5-chloro-2-(2-{[(2-methoxyphenyl)sulfonyl]amino}ethyl)-1H-indol-3-yl]propyl}benzoic acid]
260 nM	O=C(O)c1ccc(CCCc2c(CCNS(=O)(=O)c3ccccc3Cl)n(C(c3ccccc3)c3ccccc3)c3ccc(Cl)cc23)cc1 [Example 254, 4-{3-[1-benzhydryl-5-chloro-2-(2-{[(2-chlorophenyl)sulfonyl]amino}ethyl)-1H-indol-3-yl]propyl}benzoic acid]
320 nM	Cc1c(Cl)cccc1S(=O)(=O)NCCc1c(CCCc2ccc(C(=O)O)cc2)c2cc(Cl)ccc2n1C(c1ccccc1)c1ccccc1 [Example 240, 4-{3-[1-benzhydryl-5-chloro-2(2-{[(3-chloro-2-methylphenyl)sulfonyl]amino}ethyl)-1H-indol-3-yl]propyl}benzoic acid]
130 nM	O=C(O)c1ccc(CCCc2c(CCNS(=O)(=O)Cc3ccccc3[N+](=O)[O-])n(C(c3ccccc3)c3ccccc3)c3ccc(Cl)cc23)cc1 [Example 56, 4-{3-[5-Chloro-1-(diphenylmethyl)-2-(2-{[(2-nitrobenzyl)sulfonyl]amino}ethyl)-1H-indol-3-yl]propyl}benzoic acid]
140 nM	O=C(O)c1ccc(CCCc2c(CCNS(=O)(=O)c3cccc(C(F)(F)F)c3)n(C(c3ccccc3)c3ccccc3)c3ccc(Cl)cc23)cc1 [Example 218, 4-(3-{1-Benzhydryl-5-chloro-2-[2-({[3-(trifluoromethyl)phenyl]sulfonyl}amino)ethyl]-1H-indol-3-yl}propyl)benzoic acid]
980 nM	Nc1ccccc1CS(=O)(=O)NCCc1c(CCOc2ccc(C(=O)O)cc2)c2cc(Cl)ccc2n1C(c1ccccc1)c1ccccc1 [Example 16]
